Results from patent publication US7163698B2, “Controlled drug delivery system using the conjugation of drug to biodegradable polyester” (priority 1998, dated 2007).
Like-named read-outs stand apart in the source and are kept apart here.

Assays:
[1] = with polyester polymer carrier; cited from earlier work
[2] = system: human hepatoblastoma cell line (HepG2); assay: Cytotoxicity MTT assay; type: cell-based; details: HepG2, 72 hrs
Protocol: Cytotoxicities of doxorubicin and its PLGA oligomer conjugates released from nanoparticles were determined against human hepatoblastoma cell line (HepG2) obtained from Korea Research Institute of Bioscience and Biotechnology. Free doxorubicin and the released fraction from nanoparticles for 19 days incubation were used for determining the inhibition of cell growth using a tetrazolium dye (MTT) assay according to the previously established method [R. I. Freshney, Measurement of Viability and Cytotoxicity, Chapter 19 in Culture of Animal Cells, Third Edition., Wiley-Liss Inc., New York, 1994, pp. 287–307]. Dulbecco's modification of Eagle's MEM (DMEM) was used as a major cell growth medium and a humidified atmosphere (5% CO2) was maintained for cell culture. HepG2 cells harvested in a logarithmic growth phase were seeded on 96 wells at a cell density of 5×10^3 cells/ml. After incubating the cells in a logarithmic phase with various concentrations of free doxorubicin and the released fraction for 72 hrs, the MTT assay was performed and the percentage of cell viability was then determined.

[3] = system: human hepatoblastoma cell line (HepG2); details: literature value; read-out: reported IC50; cited from earlier work
mouse EL4 thymoma cells = details: 240 μg/kg s.c. daily during 12 days, C57BL16 mice
Protocol: Antitumor activity against solid tumor of free doxorubicin, free PLGA, doxorubicin encapsulated in nanoparticles and doxorubicin conjugated with nanoparticles was evaluated with mouse EL4 thymoma cells. EL4 Cells (2×10^4 cells in 0.1 ml of PBS pH 7.4 buffer) were transplanted into C57BL16 female mice (10 weeks old) subcutaneously on day 0 and drug injection started on day 10, when tumor diameter reached approximately 2 mm.
The mice were divided into five different groups, each group consisting of 6 mice. The first group, control group, was s.c. injected 100 μl PBS pH 7.4 daily during 12 days and the second group free doxorubicin (240 μg/kg body weight). However, the third group was s.c. injected placebo microsphere daily in the first two days, the fourth group nanoparticle conjugated with doxorubicin (2.4 mg/kg body weight) and the fifth group, doxorubicin encapsulated in nanoparticle (1.2 mg/kg body weight).

For gentamycin, the initial burst effects [1] is given as “over 50%”.
For `COc1cccc2c1C(=O)c1c(O)c3c(c(O)c1C2=O)C[C@@](O)(C(=O)CO)C[C@@H]3O[C@H]1C[C@H](N)[C@H](O)[C@H](C)O1` [free doxorubicin, doxorubicin], the IC50 [2] is given as 8.9 µM, the IC50 [3] is given as 7.3 µM and the “antitumor activity (tumor diameter)” value (mouse EL4 thymoma cells) is given as “significant tumor growth inhibition”.
